Results: patent publication US10947213B1 (Merck Patent GmbH, priority 2015, dated 2021)
Counter-ions that a name gives are not always drawn.

These molecules were tested against T1, TLR7/NFKb HEK cells (Homo sapiens, UniProt Q9NYK1) (assay: HEK Cell Assay (TLR7/NFKb reporter, Steady-Glo luciferase readout)). Conditions: 30 min compound preincubation, then R*48 agonist for 5 hours, read-out: Potency.
T1 construct: expressed in transfected cells; host or cells: HEK cells (TLR7/NFKb reporter line)
T1 sequence (Q9NYK1 27-1049): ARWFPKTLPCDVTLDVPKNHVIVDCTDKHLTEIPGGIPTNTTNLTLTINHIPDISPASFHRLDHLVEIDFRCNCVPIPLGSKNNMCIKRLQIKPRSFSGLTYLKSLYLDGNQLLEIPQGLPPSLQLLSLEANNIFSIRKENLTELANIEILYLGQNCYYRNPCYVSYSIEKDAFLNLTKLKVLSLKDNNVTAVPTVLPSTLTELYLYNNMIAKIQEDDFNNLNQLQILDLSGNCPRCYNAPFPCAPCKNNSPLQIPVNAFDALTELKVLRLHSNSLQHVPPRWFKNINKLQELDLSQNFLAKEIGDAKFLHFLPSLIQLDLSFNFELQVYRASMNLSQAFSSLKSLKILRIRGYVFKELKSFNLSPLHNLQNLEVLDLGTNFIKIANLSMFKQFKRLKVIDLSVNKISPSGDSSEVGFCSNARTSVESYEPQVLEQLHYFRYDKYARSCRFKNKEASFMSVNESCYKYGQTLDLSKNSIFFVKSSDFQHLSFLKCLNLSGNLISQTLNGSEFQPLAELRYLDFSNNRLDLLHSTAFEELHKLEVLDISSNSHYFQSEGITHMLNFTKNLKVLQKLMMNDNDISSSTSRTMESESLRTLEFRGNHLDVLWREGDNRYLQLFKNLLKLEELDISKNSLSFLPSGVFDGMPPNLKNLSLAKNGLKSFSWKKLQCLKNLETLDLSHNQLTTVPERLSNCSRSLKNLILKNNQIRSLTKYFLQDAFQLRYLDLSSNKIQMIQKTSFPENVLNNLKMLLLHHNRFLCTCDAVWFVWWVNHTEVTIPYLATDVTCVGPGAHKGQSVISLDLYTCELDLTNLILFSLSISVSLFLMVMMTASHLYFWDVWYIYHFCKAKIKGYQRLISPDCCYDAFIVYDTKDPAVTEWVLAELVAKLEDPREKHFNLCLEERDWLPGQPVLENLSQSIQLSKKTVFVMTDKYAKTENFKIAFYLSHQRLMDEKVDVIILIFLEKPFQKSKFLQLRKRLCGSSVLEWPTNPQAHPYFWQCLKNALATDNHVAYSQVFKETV
Format: cell-based
In short: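 Steady-Glo luminescence after 5 h stimulation with R*48 agonist, following 30 min compound preincubation. Assay run in HEK cells carrying a TLR7/NFKb luciferase reporter, plated at 5000 cells/well and grown 24 h at 37° C (10% CO2) before treatment.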

IC50 [µM]	Structure (SMILES)
< 1	C[C@H]1C[C@@H](N)CN(c2ccc(C(F)F)c3ncccc23)C1 [Compound 68, (3R,5S)-1-[8-(difluoromethyl)quinolin-5-yl]-5-methylpiperidin-3-amine]
< 1	C[C@H]1C[C@@H](N)CN(c2ccc(C#N)c3ncncc23)C1 [Compound 74, 5-((3R,5S)-3-Amino-5-methyl-piperidin-1-yl)-quinazoline-8-carbonitrile]
< 1	C[C@H]1C[C@@H](N)CN(c2ccc(C(F)(F)F)c3nccnc23)C1 [Compound 77, (3R,5S)-5-methyl-1-[8-(trifluoromethyl)quinoxalin-5-yl]piperidin-3-amine]
< 1	C[C@H]1C[C@@H](N)CN(c2ccc(Cl)c3ncccc23)C1 [Compound 78, (3R,5S)-1-(8-chloroquinolin-5-yl)-5-methylpiperidin-3-amine]
1 to 10	CC(O)C(=O)N[C@@H]1C[C@H](C)CN(c2ccc(C(F)F)c3nccnc23)C1 (stereo partly drawn) [Compound 79, N-[(3R,5S)-1-[8-(difluoromethyl)quinoxalin-5-yl]-5-methylpiperidin-3-yl]-2-hydroxypropanamide]
1 to 10	CC1(C)C[C@@H](N)CN(c2ccnc3nccnc23)C1 [Compound 80, (R)-5,5-dimethyl-1-(pyrido[2,3-b]pyrazin-8-yl)piperidin-3-amine]
< 1	C[C@H]1C[C@@H](O)CN(c2ccc(C#N)c3nccnc23)C1 [Compound 81, 8-[(3R,5S)-3-hydroxy-5-methylpiperidin-1-yl]quinoxaline-5-carbonitrile]
> 10	CC(C)[C@H](O)C(=O)N[C@@H]1C[C@H](C(F)(F)F)CN(c2ccnc3nccnc23)C1 [Compound 89, (2S)-2-hydroxy-3-methyl-N-[(3R,5S)-1-[pyrido[2,3-b]pyrazin-8-yl]-5-(trifluoromethyl)piperidin-3-yl]butanamide hydrochloride]
> 10	CC(C)[C@H](O)C(=O)N[C@H]1C[C@@H](C(F)(F)F)CN(c2ccnc3nccnc23)C1 [Compound 90, (2S)-2-hydroxy-3-methyl-N-[(3S,5R)-1-[pyrido[2,3-b]pyrazin-8-yl]-5-(trifluoromethyl)piperidin-3-yl]butanamide hydrochloride]
< 1	C[C@H]1C[C@@H](NC(=O)CO)CN(c2ccc(C#N)c3nccnc23)C1 [Compound 97, N-[(3R,5S)-1-(8-cyanoquinoxalin-5-yl)-5-methylpiperidin-3-yl]-2-hydroxyacetamide]
< 1	CCN(C)[C@H](C)C(=O)N[C@@H]1C[C@H](C)CN(c2ccc(C#N)c3nccnc23)C1 [Compound 98, (2R)—N-[(3R,5S)-1-(8-cyanoquinoxalin-5-yl)-5-methylpiperidin-3-yl]-2-[ethyl(methyl)amino]propanamide]
< 1	CCN(C)[C@@H](C)C(=O)N[C@@H]1C[C@H](C)CN(c2ccc(C#N)c3nccnc23)C1 [Compound 99, (2S)—N-[(3R,5S)-1-(8-cyanoquinoxalin-5-yl)-5-methylpiperidin-3-yl]-2-[ethyl(methyl)amino]propanamide]
1 to 10	CCN(C)[C@H](C)C(=O)N[C@@H]1C[C@H](C)CN(c2ccnc3nccnc23)C1 [Compound 100, (2R)-2-[ethyl(methyl)amino]-N-[(3R,5S)-5-methyl-1-[pyrido[2,3-b]pyrazin-8-yl]piperidin-3-yl]propanamide]
1 to 10	CCN(C)[C@@H](C)C(=O)N[C@@H]1C[C@H](C)CN(c2ccnc3nccnc23)C1 [Compound 101, (2S)-2-[ethyl(methyl)amino]-N-[(3R,5S)-5-methyl-1-[pyrido[2,3-b]pyrazin-8-yl]piperidin-3-yl]propanamide]
< 1	CC(C)[C@@H](N)C(=O)N[C@@H]1C[C@H](C)CN(c2ccc(C#N)c3nccnc23)C1 [Compound 102, (2R)-2-amino-N-[(3R,5S)-1-(8-cyanoquinoxalin-5-yl)-5-methylpiperidin-3-yl]-3-methylbutanamide]
< 1	CC(C)[C@H](N)C(=O)N[C@@H]1C[C@H](C)CN(c2ccc(C#N)c3nccnc23)C1 [Compound 103, (2S)-2-amino-N-[(3R,5S)-1-(8-cyanoquinoxalin-5-yl)-5-methylpiperidin-3-yl]-3-methylbutanamide]

IC50 [µM]	Structure (SMILES)
> 10	CC(C)[C@@H](N)C(=O)N[C@@H]1C[C@H](C)CN(c2ccnc3nccnc23)C1 [Compound 104, (2R)-2-amino-3-methyl-N-[(3R,5S)-5-methyl-1-[pyrido[2,3-b]pyrazin-8-yl]piperidin-3-yl]butanamide]
< 1	CC(C)[C@H](N)C(=O)N[C@@H]1C[C@H](C)CN(c2ccnc3nccnc23)C1 [Compound 105, (2S)-2-amino-3-methyl-N-[(3R,5S)-5-methyl-1-[pyrido[2,3-b]pyrazin-8-yl]piperidin-3-yl]butanamide]
< 1	C[C@H]1C[C@@H](NC(=O)[C@H](N)CO)CN(c2ccc(C#N)c3nccnc23)C1 [Compound 106, (2R)-2-amino-N-[(3R,5S)-1-(8-cyanoquinoxalin-5-yl)-5-methylpiperidin-3-yl]-3-hydroxypropanamide]
> 10	C[C@H]1C[C@@H](NC(=O)[C@H](N)CO)CN(c2ccnc3nccnc23)C1 [Compound 107, (2R)-2-amino-3-hydroxy-N-[(3R,5S)-5-methyl-1-[pyrido[2,3-b]pyrazin-8-yl]piperidin-3-yl]propanamide]
< 1	C[C@H]1C[C@@H](NC(=O)CN2CCOCC2)CN(c2ccc(C#N)c3nccnc23)C1 [Compound 108, N-[(3R,5S)-1-(8-cyanoquinoxalin-5-yl)-5-methylpiperidin-3-yl]-2-(morpholin-4-yl)acetamide]
< 1	C[C@H]1C[C@@H](NC(=O)CN2CCN(C)CC2)CN(c2ccc(C#N)c3nccnc23)C1 [Compound 109, N-[(3R,5S)-1-(8-cyanoquinoxalin-5-yl)-5-methylpiperidin-3-yl]-2-(4-methylpiperazin-1-yl)acetamide]
> 10	C[C@H]1C[C@@H](NC(=O)CN2CCOCC2)CN(c2ccnc3nccnc23)C1 [Compound 110, N-[(3R,5S)-5-methyl-1-[pyrido[2,3-b]pyrazin-8-yl]piperidin-3-yl]-2-(morpholin-4-yl)acetamide]
< 1	C[C@H]1C[C@@H](NC(=O)CC(F)(F)F)CN(c2ccc(C#N)c3nccnc23)C1 [Compound 111, N-[(3R,5S)-1-(8-cyanoquinoxalin-5-yl)-5-methylpiperidin-3-yl]-3,3,3-trifluoropropanamide]
< 1	C[C@H]1C[C@@H](NC(=O)[C@@H](N)Cc2cccnc2)CN(c2ccc(C#N)c3nccnc23)C1 [Compound 116, (2S)-2-amino-N-[(3R,5S)-1-(8-cyanoquinoxalin-5-yl)-5-methylpiperidin-3-yl]-3-(pyridin-3-yl)propanamide]
< 1	C[C@H]1C[C@@H](NC(=O)[C@@H](N)c2ccccc2)CN(c2ccc(C#N)c3nccnc23)C1 [Compound 117, (2S)-2-amino-N-[(3R,5S)-1-(8-cyanoquinoxalin-5-yl)-5-methylpiperidin-3-yl]-2-phenylacetamide]
1 to 10	C[C@H]1C[C@@H](NC(=O)[C@@H](N)Cc2cccnc2)CN(c2ccnc3nccnc23)C1 [Compound 118, (2S)-2-amino-N-[(3R,5S)-5-methyl-1-[pyrido[2,3-b]pyrazin-8-yl]piperidin-3-yl]-3-(pyridin-3-yl)propanamide]
< 1	C[C@H]1C[C@@H](NC(=O)[C@H](N)c2ccccc2)CN(c2ccc(C#N)c3nccnc23)C1 [Compound 119, (2R)-2-amino-N-[(3R,5S)-1-(8-cyanoquinoxalin-5-yl)-5-methylpiperidin-3-yl]-2-phenylacetamide]
> 10	C[C@H]1C[C@@H](NC(=O)CC(F)(F)F)CN(c2ccnc3nccnc23)C1 [Compound 120, 3,3,3-trifluoro-N-[(3R,5S)-5-methyl-1-[pyrido[2,3-b]pyrazin-8-yl]piperidin-3-yl]propanamide]
> 10	C[C@H]1C[C@@H](NCC(N)=O)CN(c2ccnc3nccnc23)C1 [Compound 121, 2-[[(3R,5S)-5-methyl-1-[pyrido[2,3-b]pyrazin-8-yl]piperidin-3-yl]amino]acetamide]
< 1	C[C@H]1C[C@@H](NCC(N)=O)CN(c2ccc(C#N)c3nccnc23)C1 [Compound 122, 2-[[(3R,5S)-1-(8-cyanoquinoxalin-5-yl)-5-methylpiperidin-3-yl]amino]acetamide]
